The values that follow come from patent publication US11472845B2, “Antitumor peptide and use thereof” (TOAGOSEI CO., LTD., priority 2019, dated 2022).

Read-outs that look alike come from different tables or passages of the source. Ends that are not written are not given here.

What all share (type): cell-based
Series [1] relates to human alveolar basal epithelial adenocarcinoma cell lines (A549). Particulars: for Cell viability (%) of test cells: human, 48 h. The protocol:
The antitumor activity of Sample 1 synthesized in the above Test Example 1 with respect to human-derived cultured tumor cells was evaluated. Currently commercially available human gastric cancer cell lines (FU97), human alveolar basal epithelial adenocarcinoma cell lines (A549), human breast cancer cell lines (MDA-MB-231), and human melanoma cell lines (A375) were prepared as test tumor cells. In addition, normal human mammary epithelial cell culture lines (MCF-12F) were prepared for comparison. An RPMI-1640 culture medium including 2 mM of L-glutamine, 1 mM of sodium pyruvate, 10 mM of HEPES, […] of glucose, 50 unit/mL of penicillin, 50 μg/mL of streptomycin, and 10% FBS (product, commercially available from Wako Pure Chemical Industries, Ltd.). The above five types of cell lines were cultured in respective designated culture solutions. The cell lines were cultured so that the number of cells per well in a 96-hole (well) plate was about 5×10^3. Here, an amount of the culture solution per well was 100 μL. The 96-well plate was then placed in a CO2 incubator. Then, pre-incubation was performed under conditions of 37° C. and 5% CO2 for about 1 day (about 23 hours). Then, regarding the culture solution for the peptide addition area, culture solutions containing Sample 1 for each concentration were prepared so that the concentration of Sample 1 was 6.25 μM, 12.5 μM or 25 μM and supplied to wells (that is, wells after the pre-incubation) in which 90 μL of cells to be evaluated were cultured in each well. On the other hand, regarding the culture solution for the comparative test area, a culture solution to which no Sample 1 was added was prepared, and supplied to wells (that is, wells after the pre-incubation) in which 90 μL of cells to be evaluated were cultured in each well. The 96-well plate was then placed in a CO2 incubator, and incubated under conditions of 37° C. and 5% CO2 for 48 hours. […] Then, the absorbance at a wavelength of 450 nm (value corrected by the absorbance at a wavelength of 620 nm: A450-A620) was measured based on the reduction of the tetrazolium salt in the culture solution. Then, the cell viability was calculated according to a colorimetric method. In the test areas (test areas 1 to 3) in the peptide addition area, the cell viability of each of the above five types of cell lines was calculated as a relative value when a measured value (measurement absorbance) of the comparative test area in the same cell lines was set as 100%. That is, regarding each of the above five types of cell lines, the cell viability (%) was calculated by dividing the measurement absorbance of the test areas (test areas 1 to 3) in the peptide addition area by the measurement absorbance of the comparative test area in the same cell lines and multiplying by 100.

A short description of the next series: in vitro. Particulars: human. The method, then: Currently commercially available human gastric cancer cell lines (FU97), human alveolar basal epithelial adenocarcinoma cell lines (A549), human breast cancer cell lines (MDA-MB-231), and human melanoma cell lines (A375) were prepared as test tumor cells. In addition, normal human mammary epithelial cell culture lines (MCF-12F) were prepared for comparison. A DMEM/F12 culture medium including 20 ng/mL of recombinant EGF, 10 μg/mL of insulin, 0.5 μg/mL of hydrocortisone, and 10% FBS (product, commercially available from Wako Pure Chemical Industries, Ltd.). The above five types of cell lines were cultured in respective designated culture solutions. The cell lines were cultured so that the number of cells per well in a 96-hole (well) plate was about 5×10^3. Here, an amount of the culture solution per well was 100 μL. The 96-well plate was then placed in a CO2 incubator. Then, pre-incubation was performed under conditions of 37° C. and 5% CO2 for about 1 day (about 23 hours). Then, regarding the culture solution for the peptide addition area, culture solutions containing Sample 1 for each concentration were prepared so that the concentration of Sample 1 was 6.25 μM, 12.5 μM or 25 μM and supplied to wells (that is, wells after the pre-incubation) in which 90 μL of cells to be evaluated were cultured in each well. On the other hand, regarding the culture solution for the comparative test area, a culture solution to which no Sample 1 was added was prepared, and supplied to wells (that is, wells after the pre-incubation) in which 90 μL of cells to be evaluated were cultured in each well. The 96-well plate was then placed in a CO2 incubator, and incubated under conditions of 37° C. and 5% CO2 for 48 hours. […] Then, the absorbance at a wavelength of 450 nm (value corrected by the absorbance at a wavelength of 620 nm: A450-A620) was measured based on the reduction of the tetrazolium salt in the culture solution. Then, the cell viability was calculated according to a colorimetric method. […]

Series [2] relates to tumor cells derived from non-human mammals. The experiment in a line: Antitumor activity on tumor cells derived from non-human mammals (data not shown). Particulars: detailed data not shown.

“MACLGFQRHKAQLNLATRTWPCTLLFFLLFIPVFCKKRTLRKTDRKKR-NH2 (cysteines drawn unpaired) [Sample 1]”: in series [1] (A549, 12.5 μM Sample 1, (cell viability of test tumor cells)/(cell viability of MCF-12F cells)×100), the “Specific cell viability of test tumor cells” value was found to be 36.0. Also, the figures for the “Cell viability (%) of test cells” value in series [1] (6.25 μM), in series [1] (12.5 μM) and in series [1] (25 μM) were 64.7%, 41.1% and 24.9%, respectively. Besides, in “in vitro”, the viability (commonly a read-out of living cells in per cent, often relative to untreated cells) at 48 h, 6.25 μM amounted to 130%. The viability at 48 h, 12.5 μM in “in vitro” amounted to 114%. In the series “in vitro”, the viability at 48 h, 25 μM was 82%. In addition, in series [2], the “antitumor activity and tumor cell-selective antitumor activity” value is “high antitumor activity and tumor cell-selective antitumor activity”.
